According to ChEMBL document CHEMBL3286265, “Three new anti-proliferative Annonaceous acetogenins with mono-tetrahydrofuran ring from graviola fruit (Annona muricata)” (Bioorg Med Chem Lett, 2014):
The source made the active and inactive calls. The calls are words filed in the database; no cut-off is given here.

These compounds were tested on PC-3 (assay: Antiproliferative activity against human PC3 cells at 20 ug/ml after 24 hrs by MTT assay).
Assay type: functional, cell-based

SMILES	inhibition
CCCCCCCC[C@@H](O)[C@@H](O)CC[C@H](O)[C@H]1CC[C@H](CCCCCCCCCCC[C@H](O)CC2=C[C@H](C)OC2=O)O1	Active
CCCCCCCCCCCC[C@H](O)[C@H]1CC[C@H]([C@H](O)CC(O)CCCCCCCC[C@H](O)CC2=C[C@H](C)OC2=O)O1 (stereo partly drawn)	Active
CCCCCCCC(O)CCCCCCC[C@@H](O)[C@H]1CC[C@H]([C@H](O)CCCCCCC[C@H](O)CC2=C[C@H](C)OC2=O)O1 (stereo partly drawn)	Active
